Assay results as given in patent US20040220297A1, “Self curing cements” (priority 1999, published 2004).

Test: Cytotoxicity tests
Assay type: cell-based

For `CCCCCCCC/C=C\CCCCCCCC(=O)OCc1ccc(N(C)C)cc1` [DMAO, 4-N,N-dimethylaminobenzyloleate], the cytotoxicity was “non-toxic”.
